Source: a compilation of properties of binary mixtures (doi:10.1016/j.molliq.2020.112754)

Assay: xn = mol fraction of the nth substance listed
Conditions: 100 kPa

Cc1ccccc1 + CCCC[N+]1(C)CCCC1.O=S(=O)([N-]S(=O)(=O)C(F)(F)F)C(F)(F)F
x1 = 1
Conditions | viscosity [mPa·s]
293.15 K | 0.598
298.15 K | 0.569
303.15 K | 0.539
313.15 K | 0.485

CCCC[n+]1ccccc1.O=S(=O)([N-]S(=O)(=O)C(F)(F)F)C(F)(F)F + Cc1ccccc1
viscosity [mPa·s]
Conditions | x2 = 0 | x2 = 0.0994 | x2 = 0.2022 | x2 = 0.2939 | x2 = 0.3972 | x2 = 0.5025 | x2 = 0.6068 | x2 = 0.7033
293.15 K | 68.9 | 54.2 | 41.67 | 31.52 | – | 15.1 | – | 6.11
298.15 K | – | 42.92 | 33.54 | 25.9 | 19 | – | 9.09 | 5.53
303.15 K | 41.94 | 34.61 | 27.6 | – | 16.23 | 11.99 | 8.21 | 5.19
308.15 K | 33.75 | 28.44 | 22.89 | 18.36 | – | – | 7.48 | 4.96
313.15 K | 27.63 | 23.67 | 19.28 | 15.83 | – | 9.23 | – | 4.293

CCCC[N+]1(C)CCCC1.O=S(=O)([N-]S(=O)(=O)C(F)(F)F)C(F)(F)F + Cc1ccccc1
viscosity [mPa·s]
Conditions | x2 = 0 | x2 = 0.1093 | x2 = 0.1978 | x2 = 0.3041 | x2 = 0.3965 | x2 = 0.5054 | x2 = 0.6027 | x2 = 0.7066
293.15 K | 90.2 | 66.9 | 51.5 | 36.61 | 26 | 17.04 | 11.02 | 6.26
298.15 K | – | 52.3 | 41.5 | 29.96 | 21.88 | – | – | 5.73
303.15 K | 56.2 | 42.87 | 34.07 | – | – | 13.06 | 9.11 | 5.28
308.15 K | 45.8 | 34.88 | 28.4 | 21.58 | 16.48 | 11.86 | 8.4 | 5.05
313.15 K | – | 29.43 | 24.08 | – | – | 10.63 | 7.58 | –

Cc1ccccc1 + CCCC[n+]1ccccc1.O=S(=O)([N-]S(=O)(=O)C(F)(F)F)C(F)(F)F
x1 = 1
Conditions | viscosity [mPa·s]
293.15 K | 0.598
298.15 K | 0.569
303.15 K | 0.539
308.15 K | 0.509
313.15 K | 0.485

Cc1ccccc1 + CCCCCC[N+]1(C)CCCC1.O=S(=O)([N-]S(=O)(=O)C(F)(F)F)C(F)(F)F
x1 = 1
Conditions | viscosity [mPa·s]
293.15 K | 0.598
298.15 K | 0.569
303.15 K | 0.539
313.15 K | 0.495

CCCCCC[N+]1(C)CCCC1.O=S(=O)([N-]S(=O)(=O)C(F)(F)F)C(F)(F)F + Cc1ccccc1
viscosity [mPa·s]
Conditions | x2 = 0 | x2 = 0.0942 | x2 = 0.1943 | x2 = 0.29 | x2 = 0.3938 | x2 = 0.493 | x2 = 0.5961 | x2 = 0.6986 | x2 = 0.7993
293.15 K | 136.2 | 103.1 | 77.3 | 55.6 | – | 24.39 | 14.74 | 8.36 | –
298.15 K | 102.8 | 79.3 | 61.2 | 44.91 | 30.92 | 20.68 | 12.89 | 7.61 | 3.838
303.15 K | 79.6 | 62.3 | 48 | 36.7 | 25.95 | 17.85 | – | 6.93 | 3.477
308.15 K | 63.1 | 50.2 | 39.6 | – | 22.17 | 15.66 | 10.64 | 6.49 | –
313.15 K | – | 40.96 | 32.72 | 25.67 | 19.3 | 14.05 | 9.54 | 5.88 | 2.944
